# Laboratory results reported in US20260317344A1, “EGFR INHIBITORS FOR TREATING DISEASE” (BLOSSOMHILL THERAPEUTICS, INC., priority 2023, published 2026).
# Key:
# [1] = test system: NCI-H1975 cells; test: 5-Day CellTiter Glo (CTG) cell proliferation assay, NCI-H1975; type: cell-based; conditions: Homo sapiens; NCI-H1975 cells (L858R/T790M EGFR), 5-day CTG proliferation, 120 hours; read-out: H1975 IC50
# Summary of the method: (§1)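 Proliferation of EGFR-driven NSCLC cells was scored as CellTiter-Glo 2.0 luminescence after a 5-day (120 h) incubation with compounds in 9 doses. IC50 values came from the dose-response curves.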
# [2] = target: EGFR (L858R/T790M/C797S) (Homo sapiens, UniProt P00533, C797S/L858R/T790M); test: HotSpot radiometric kinase assay, inhibition of EGFR L858R/T790M/C797S mutant; type: biochemical; conditions: 33P ATP, room temperature, 120 m
# Summary of the method: (§2)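 Radiometric filter-binding format: ATP plus 33P-ATP ([…]) was added about 20 min after compound to kinase and substrate in HEPES pH 7.5 buffer with Mg2+, EGTA, Brij35, BSA, vanadate, DTT and 1% DMSO. After 120 min at room temperature, reactions were spotted on P81 paper and washed in phosphoric acid; IC50 values fitted.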
# [3] = target: T1, pEGFR, PC-9 cells (d746-750 EGFR) (Homo sapiens, UniProt P00533, DEL746-750); test: Cellular EGFR phosphorylation assay (LANCE Ultra TR-FRET) in PC-9 cells; type: cell-based; conditions: 4 hours at 37° C., read-out: PC-9 pEGFR IC50
# T1 construct: pEGFR (Tyr1068) TR-FRET
# T1 sequence (P00533 with tags, fused parts or gaps DEL746-750): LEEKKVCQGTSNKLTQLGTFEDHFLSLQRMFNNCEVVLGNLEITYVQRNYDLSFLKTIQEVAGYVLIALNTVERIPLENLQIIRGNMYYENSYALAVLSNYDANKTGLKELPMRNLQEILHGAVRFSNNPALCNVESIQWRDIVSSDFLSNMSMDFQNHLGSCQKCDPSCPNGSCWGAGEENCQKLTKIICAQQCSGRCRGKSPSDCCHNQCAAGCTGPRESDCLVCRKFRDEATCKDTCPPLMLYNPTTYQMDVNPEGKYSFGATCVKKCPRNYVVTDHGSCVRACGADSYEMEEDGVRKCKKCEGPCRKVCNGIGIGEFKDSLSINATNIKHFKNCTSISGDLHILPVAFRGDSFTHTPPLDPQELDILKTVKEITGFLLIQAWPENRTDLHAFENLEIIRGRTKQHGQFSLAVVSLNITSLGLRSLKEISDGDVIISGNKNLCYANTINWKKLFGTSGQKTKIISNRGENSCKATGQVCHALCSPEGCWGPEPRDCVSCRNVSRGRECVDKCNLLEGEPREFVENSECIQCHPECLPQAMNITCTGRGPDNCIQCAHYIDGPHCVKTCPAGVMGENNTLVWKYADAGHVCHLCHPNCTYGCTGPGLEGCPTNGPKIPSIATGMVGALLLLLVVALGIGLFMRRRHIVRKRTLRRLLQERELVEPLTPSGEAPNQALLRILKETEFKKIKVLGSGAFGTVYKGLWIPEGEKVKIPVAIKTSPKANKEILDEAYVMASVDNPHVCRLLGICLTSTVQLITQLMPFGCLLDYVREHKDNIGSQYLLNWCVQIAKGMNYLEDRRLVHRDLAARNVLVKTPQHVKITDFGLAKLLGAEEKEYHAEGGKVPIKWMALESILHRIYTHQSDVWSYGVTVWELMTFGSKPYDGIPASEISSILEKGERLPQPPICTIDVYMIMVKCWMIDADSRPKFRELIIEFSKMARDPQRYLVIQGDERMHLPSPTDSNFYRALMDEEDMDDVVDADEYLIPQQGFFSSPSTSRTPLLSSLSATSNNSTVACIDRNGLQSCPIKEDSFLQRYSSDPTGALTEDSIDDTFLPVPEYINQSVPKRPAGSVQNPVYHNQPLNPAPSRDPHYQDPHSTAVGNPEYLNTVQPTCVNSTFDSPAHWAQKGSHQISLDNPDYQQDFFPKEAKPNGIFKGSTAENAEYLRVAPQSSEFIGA
# Summary of the method: (§3)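 Phospho-EGFR (Tyr1068) measured by TR-FRET in lysates after 4 h compound exposure at 37° C (9 doses, 3-fold steps). A431 cells, seeded at 30 thousand per well, received 40 ng/mL EGF for the last 10 min; PC-9 and NCI-H1975 seeded at 50 thousand per well, unstimulated. IC50 values reported.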
# [4] = target: EGFR WT (Homo sapiens, UniProt P00533); test: HotSpot radiometric kinase assay, inhibition of EGFR WT; type: biochemical; conditions: 33P ATP, room temperature, 120 m
# Chain of EGFR WT (P00533 25-1210): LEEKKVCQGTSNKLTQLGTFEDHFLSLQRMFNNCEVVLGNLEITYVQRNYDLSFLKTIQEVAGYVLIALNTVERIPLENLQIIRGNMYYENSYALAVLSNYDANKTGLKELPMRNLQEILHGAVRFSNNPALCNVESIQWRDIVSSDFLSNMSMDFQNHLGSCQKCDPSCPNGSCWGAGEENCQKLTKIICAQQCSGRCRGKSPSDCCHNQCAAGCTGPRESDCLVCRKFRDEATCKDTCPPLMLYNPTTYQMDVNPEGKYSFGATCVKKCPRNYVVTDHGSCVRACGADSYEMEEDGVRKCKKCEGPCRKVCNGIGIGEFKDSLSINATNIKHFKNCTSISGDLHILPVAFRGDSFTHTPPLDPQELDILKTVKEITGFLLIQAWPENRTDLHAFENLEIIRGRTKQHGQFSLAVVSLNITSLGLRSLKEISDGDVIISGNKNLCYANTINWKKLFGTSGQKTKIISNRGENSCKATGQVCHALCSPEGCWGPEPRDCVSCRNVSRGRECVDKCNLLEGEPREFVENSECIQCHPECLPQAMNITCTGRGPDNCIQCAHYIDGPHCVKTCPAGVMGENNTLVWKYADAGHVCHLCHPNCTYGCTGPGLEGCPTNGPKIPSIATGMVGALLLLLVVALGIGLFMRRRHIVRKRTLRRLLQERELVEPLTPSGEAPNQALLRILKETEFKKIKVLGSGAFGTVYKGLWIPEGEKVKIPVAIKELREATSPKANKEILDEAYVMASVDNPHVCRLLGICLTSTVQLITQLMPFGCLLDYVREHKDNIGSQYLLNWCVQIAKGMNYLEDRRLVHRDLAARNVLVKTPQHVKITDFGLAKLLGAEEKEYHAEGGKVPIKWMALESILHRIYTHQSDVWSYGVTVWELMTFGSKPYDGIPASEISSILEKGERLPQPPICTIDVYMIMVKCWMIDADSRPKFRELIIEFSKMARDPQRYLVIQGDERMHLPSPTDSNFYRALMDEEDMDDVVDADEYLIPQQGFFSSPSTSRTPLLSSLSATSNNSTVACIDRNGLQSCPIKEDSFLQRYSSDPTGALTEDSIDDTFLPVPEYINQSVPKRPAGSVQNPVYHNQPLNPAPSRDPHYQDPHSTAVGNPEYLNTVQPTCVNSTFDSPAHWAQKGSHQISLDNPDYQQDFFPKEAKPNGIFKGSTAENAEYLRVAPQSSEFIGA
# Procedure: (§4) Biochemical Assays for inhibition of wild-type and mutant EGFRs
# (§5) Briefly, specific kinase/substrate pairs along with required cofactors were prepared in reaction buffer; 20 mM HEPES pH 7.5, 10 mM […], 1 mM EGTA, 0.02% Brij35, 0.02 mg/ml BSA, 0.1 mM Na3VO4, 2 mM DTT, 1% DMSO. Compounds were delivered into the reaction, followed ~20 minutes later by addition of a mixture of ATP (Sigma, St. Louis MO) and ^33P ATP (Perkin Elmer, Waltham MA) to a final concentration of […]. Reactions were carried out at room temperature for 120 m, followed by spotting of the reactions onto P81 ion exchange filter paper (Whatman Inc., Piscataway, NJ). Unbound phosphate was removed by extensive washing of filters in 0.75% phosphoric acid. […] IC50 values and curve fits were obtained using Prism (GraphPad Software).
# [5] = test system: BaF3 cells with engineered EGFR L858R/C797S; test: 3-Day CellTiter Glo (CTG) cell proliferation assay, BaF3 EGFR L858R/C797S; type: cell-based; conditions: Mus musculus, 3-day CTG proliferation, 72 hours
# Summary of the method: (§6)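 Luminescent ATP read-out (CellTiter-Glo 2.0) after 72 h compound exposure gives IC50 values. BaF3 transgenic cells, one thousand per well, received a nine-dose series and were kept at 37 °C under 5% CO2.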
# [6] = target: EGFR (D746-750) (Homo sapiens, UniProt P00533, DEL746-750); test: HotSpot radiometric kinase assay, inhibition of EGFR 746-750 mutant; type: biochemical; conditions: 33P ATP, room temperature, 120 m
# Chain of EGFR (D746-750) (P00533 with tags, fused parts or gaps DEL746-750): as the sequence (P00533 with tags, fused parts or gaps DEL746-750) above
# Summary of the method: as §2
# [7] = test system: PC-9 cells; test: 5-Day CellTiter Glo (CTG) cell proliferation assay, PC-9; type: cell-based; conditions: Homo sapiens; PC-9 cells (d746-750 EGFR), 5-day CTG proliferation, 120 hours; read-out: PC-9 IC50
# Summary of the method: as §1
# [8] = target: EGFR (L858R) (Homo sapiens, UniProt P00533, L858R); test: HotSpot radiometric kinase assay, inhibition of EGFR L858R mutant; type: biochemical; conditions: 33P ATP, room temperature, 120 m
# Procedure: as §4, §5
# [9] = target: T2, pEGFR, A431 cells (wildtype EGFR) (Homo sapiens, UniProt P00533); test: Cellular EGFR phosphorylation assay (LANCE Ultra TR-FRET) in A431 cells; type: cell-based; conditions: 4 hours at 37° C., 40 ng/mL EGF for the final 10 minutes, read-out: A431 pEGFR IC50
# T2 construct: pEGFR (Tyr1068) TR-FRET
# T2 sequence (P00533 25-1210): as the sequence (P00533 25-1210) above
# Summary of the method: as §3
# [10] = target: EGFR (D746-750/C797S) (Homo sapiens, UniProt P00533, C797S/DEL746-750); test: HotSpot radiometric kinase assay, inhibition of EGFR 746-750/C797S mutant; type: biochemical; conditions: 33P ATP, room temperature, 120 m
# Summary of the method: as §2
# [11] = test system: HCC827 cells; test: 5-Day CellTiter Glo (CTG) cell proliferation assay, HCC827; type: cell-based; conditions: Homo sapiens; HCC827 cells (d746-750 EGFR), 5-day CTG proliferation, 120 hours; read-out: HCC827 IC50
# Summary of the method: as §1
# [12] = test system: BaF3 cells with engineered EGFR L858R/T790M/C797S; test: 3-Day CellTiter Glo (CTG) cell proliferation assay, BaF3 EGFR L858R/T790M/C797S; type: cell-based; conditions: Mus musculus, 3-day CTG proliferation, 72 hours
# Summary of the method: as §6
# [13] = target: EGFR (D770_N771insNPG) (Homo sapiens, UniProt P00533, INS770NPG); test: HotSpot radiometric kinase assay, inhibition of EGFR (D770_N771insNPG) mutant; type: biochemical; conditions: 33P ATP, room temperature, 120 m
# Summary of the method: as §2
# [14] = test system: BaF3 cells with engineered EGFR d746-750/T790M; test: 3-Day CellTiter Glo (CTG) cell proliferation assay, BaF3 EGFR d746-750/T790M; type: cell-based; conditions: Mus musculus; BaF3 EGFR d746-750/T790M cells, 3-day CTG proliferation, 72 hours
# Summary of the method: as §6
# [15] = target: T3, pEGFR, NCI-H1975 cells (L858R/T790M EGFR) (Homo sapiens, UniProt P00533, L858R/T790M); test: Cellular EGFR phosphorylation assay (LANCE Ultra TR-FRET) in NCI-H1975 cells; type: cell-based; conditions: 4 hours at 37° C., read-out: H1975 pEGFR IC50
# T3 construct: pEGFR (Tyr1068) TR-FRET
# Summary of the method: as §3
# [16] = target: EGFR (L858R/T790M) (Homo sapiens, UniProt P00533, L858R/T790M); test: HotSpot radiometric kinase assay, inhibition of EGFR L858R/T790M mutant; type: biochemical; conditions: 33P ATP, room temperature, 120 m
# Procedure: as §4, §5
Structure (SMILES),IC50 [1] [nM],IC50 [2] [nM],IC50 [3] [nM],IC50 [4] [nM],IC50 [5] [nM],IC50 [6] [nM],IC50 [7] [nM],IC50 [8] [nM],IC50 [9] [nM],IC50 [10] [nM],IC50 [11] [nM],IC50 [12] [nM],IC50 [13] [nM],IC50 [14] [nM],IC50 [15] [nM],IC50 [16] [nM]
"CCOc1nn([C@@H](C)CO)c2c1/C=C/c1n[nH]c3cnc(cc13)-c1c(C)nn(C)c1O[C@H](C)CN(CC)C2 [Ex. 24, (2S)-2-[(10R,17E)-16-ethoxy-12-ethyl-6,8,10-trimethyl-2,8,10,11,12,13-hexahydro-14H-5,3-(azenometheno)tripyrazolo[3,4-f:3′,4′-j:4″,3″-n][1,4]oxazacyclopentadecin-14-yl]propan-1-ol]",1.26,0.57,1.5,0.5,0.11,0.51,0.47,1.68,22.4,1.08,0.27,0.78,0.62,0.41,1.6,0.94
"CCOc1nn([C@@H](C)CO)c2c1/C=C/c1n[nH]c3cnc(cc13)-c1c(C)nn(C)c1O[C@@H](C)CN(CC)C2 [Ex. 26, (2S)-2-[(10S,17E)-16-ethoxy-12-ethyl-6,8,10-trimethyl-2,8,10,11,12,13-hexahydro-14H-5,3-(azenometheno)tripyrazolo[3,4-f:3′,4′-j:4″,3″-n][1,4]oxazacyclopentadecin-14-yl]propan-1-ol]",1.11,0.93,1.6,0.8,0.11,0.73,0.44,2.39,12.2,1.97,0.27,1.16,0.9,0.66,3.4,1.44
"CCOc1nn(CCO)c2c1/C=C/c1n[nH]c3cnc(cc13)-c1c(C)nn(C)c1O[C@H](C)CN(C(C)C)C2 [Ex. 1, 2-[(10R,17E)-16-ethoxy-6,8,10-trimethyl-12-(propan-2-yl)-2,8,10,11,12,13-hexahydro-14H-5,3-(azenometheno)tripyrazolo[3,4-f:3′,4′-j:4″,3″-n][1,4]oxazacyclopentadecin-14-yl]ethan-1-ol]",28.6,0.99,3.09,1.13,0.41,1.24,4.66,1.11,19.1,1.54,0.68,1.57,1.51,1.7,3.01,1.84
"CCOc1nn(CCO)c2c1/C=C/c1n[nH]c3cnc(cc13)-c1c(C)nn(C)c1O[C@@H](C)CN(CC)C2 [Ex. 15, 2-[(10S,17E)-16-ethoxy-12-ethyl-6,8,10-trimethyl-2,8,10,11,12,13-hexahydro-14H-5,3-(azenometheno)tripyrazolo[3,4-f:3′,4′-j:4″,3″-n][1,4]oxazacyclopentadecin-14-yl]ethan-1-ol]",0.76,0.37,1.05,0.12,0.06,0.6,0.33,0.27,7.48,0.24,0.18,0.79,0.22,0.58,1.86,0.37
